From the CheMixHub viscosity set
Where “and” joins values, the source holds several entries; their conditions need not be identical. Equal values may be shown once. ± gives the uncertainty stated by the source.

CC(C)(C)O
viscosity (293.15 K, 101 kPa): 3.925 ± 1 mPa·s | viscosity (298 K, 101 kPa): 3.41 ± 0.18 mPa·s and 4.324 ± 0.036 mPa·s | viscosity (298.15 K, 100 kPa): 4.396 ± 0.18 mPa·s | viscosity (303 K, 101.33 kPa): 3.268 ± 0.34 mPa·s | viscosity (303.15 K, 101.3 kPa): 3.318 ± 0.038 mPa·s and 3.318 ± 0.04 mPa·s | viscosity (303.2 K, 101.33 kPa): 3.333 ± 0.022 mPa·s and 3.333 ± 0.027 mPa·s | viscosity (305 K, 101 kPa): 3.076 ± 0.019 mPa·s | viscosity (308 K, 101 kPa): 2.333 mPa·s | viscosity (308.15 K, 101.3 kPa): 2.55 ± 0.015 mPa·s | viscosity (308.15 K, 101.33 kPa): 2.644 ± 0.27 mPa·s and 2.595 mPa·s and 2.546 ± 0.022 mPa·s | viscosity (313 K, 101 kPa): 2.102 ± 0.014 mPa·s | viscosity (313.15 K, 101.3 kPa): 2.047 ± 0.047 mPa·s | viscosity (318 K, 101 kPa): 1.702 ± 0.018 mPa·s | viscosity (318.15 K, 101.33 kPa): 1.889 ± 0.19 mPa·s and 1.726 mPa·s | viscosity (323 K, 101 kPa): 1.404 ± 0.0093 mPa·s | viscosity (323.15 K, 100 kPa): 1.418 ± 0.059 mPa·s | viscosity (323.15 K, 101 kPa): 1.421 ± 0.018 mPa·s and 1.423 ± 0.011 mPa·s and 1.415 ± 0.01 mPa·s

CN(CCO)CCO
viscosity (293.15 K, 101 kPa): 101.2 ± 6.2 mPa·s | viscosity (298.15 K, 101 kPa): 74.81 ± 4.5 mPa·s | viscosity (298.15 K, 101.33 kPa): 77.19 ± 2.4 mPa·s and 77.19 ± 0.84 mPa·s | viscosity (313.15 K, 101 kPa): 37.9 ± 2 mPa·s and 34.04 ± 0.41 mPa·s | viscosity (323.15 K, 101 kPa): 24.7 ± 1.3 mPa·s and 21.53 ± 0.27 mPa·s

ClCc1ccccc1
viscosity (298.15 K, 101 kPa): 1.377 ± 0.033 mPa·s | viscosity (303.15 K, 101 kPa): 1.112 ± 0.01 mPa·s

CCCCOC(=O)c1ccccc1
viscosity (293.15 K, 101.33 kPa): 2.835 ± 0.016 mPa·s | viscosity (298.15 K, 101 kPa): 2.691 ± 0.085 mPa·s | viscosity (303.15 K, 101.33 kPa): 2.189 ± 0.013 mPa·s | viscosity (308.15 K, 101 kPa): 2.208 ± 0.069 mPa·s | viscosity (313.15 K, 101.33 kPa): 1.73 ± 0.01 mPa·s | viscosity (318.15 K, 101 kPa): 1.819 ± 0.057 mPa·s | viscosity (323.15 K, 101.33 kPa): 1.388 ± 0.009 mPa·s

NCCN
viscosity (293.15 K, 101 kPa): 1.52 ± 0.03 mPa·s and 1.62 ± 0.12 mPa·s and 1.54 ± 0.03 mPa·s | viscosity (298.15 K, 101 kPa): 1.37 ± 0.03 mPa·s and 1.39 ± 0.03 mPa·s and 1.26 ± 0.034 mPa·s | viscosity (303.15 K, 101 kPa): 1.16 ± 0.03 mPa·s and 1.18 ± 0.03 mPa·s and 1.299 ± 0.01 mPa·s (2×) | viscosity (303.15 K, 101.3 kPa): 1.29 ± 0.13 mPa·s | viscosity (303.15 K, 101.33 kPa): 1.299 ± 0.01 mPa·s | viscosity (308.15 K, 101.3 kPa): 1.167 ± 0.12 mPa·s | viscosity (308.15 K, 101.33 kPa): 1.191 ± 0.01 mPa·s | viscosity (313.15 K, 100 kPa): 0.7611 ± 0.0066 mPa·s | viscosity (313.15 K, 101.3 kPa): 1.06 ± 0.11 mPa·s | viscosity (313.15 K, 101.33 kPa): 1.08 ± 0.009 mPa·s | viscosity (318.15 K, 101.3 kPa): 0.967 ± 0.097 mPa·s | viscosity (318.15 K, 101.33 kPa): 0.986 ± 0.008 mPa·s | viscosity (323.15 K, 101 kPa): 0.737 ± 0.02 mPa·s and 0.9042 ± 0.0074 mPa·s and 0.904 ± 0.007 mPa·s | viscosity (323.15 K, 101.33 kPa): 0.904 ± 0.007 mPa·s

CCCBr
viscosity (293.15 K, 101 kPa): 0.531 ± 0.011 mPa·s | viscosity (303.15 K, 101 kPa): 0.486 ± 0.011 mPa·s | viscosity (308.15 K, 101 kPa): 0.436 ± 0.0038 mPa·s | viscosity (313.15 K, 101 kPa): 0.448 ± 0.01 mPa·s | viscosity (323.15 K, 101 kPa): 0.415 ± 0.009 mPa·s
